Measured values taken from ChEMBL document CHEMBL1151989, “Antineoplastic agents. 578. Synthesis of stilstatins 1 and 2 and their water-soluble prodrugs” (J Nat Prod, 2009).
≈ marks a conversion by molar mass, not a printed value.

Experiments:
NCI-H460 = assay: Antitumor activity against human NCI-H460 cells by sulforhodamine B assay; format: functional
P388 = assay: In vitro growth inhibition against mouse P388 cells
BXPC-3 = assay: Antitumor activity against human BxPC3 cells by sulforhodamine B assay; format: functional
KM-20L2 = assay: Antitumor activity against human KM20L2 cells by sulforhodamine B assay; format: functional
DU-145 = assay: Antitumor activity against human DU145 cells by sulforhodamine B assay; format: functional
SF-268 = assay: Antitumor activity against human SF268 cells by sulforhodamine B assay; format: functional
MCF7 = assay: Antitumor activity against human MCF7 cells by sulforhodamine B assay; format: functional
SW-1736 = assay: Antitumor activity against human SW1736 cells by sulforhodamine B assay; format: functional
[1] = (§1) Antitumor activity against human KAT4 cells by sulforhodamine B assay; format: functional; settings: KAT-4
KAT-4 = assay: as §1; format: functional
[2] = Aqueous solubility of compound in water; format: physicochemical

Row | Compound | GI50 (NCI-H460) [µg/mL] | GI50 (BXPC-3) [µg/mL] | GI50 (DU-145) [µg/mL] | GI50 (MCF7) [µg/mL] | GI50 (SW-1736) [µg/mL] | ED50 (P388) [µg/mL] | GI50 (KM-20L2) [µg/mL] | GI50 (SF-268) [µg/mL] | GI50 [1] [µg/mL] | GI50 (KAT-4) [µg/mL] | solubility [2] [mg/mL]
1 | COc1ccc(/C=C\c2cc(OC)c(OC)c(OC)c2)c(O)c1O [COMBRETASTATIN A-1] | 0.74 (≈ 2.23 µM) | 4.4 (≈ 13.2 µM) | 0.17 (≈ 0.512 µM) | – | – | 0.3 (≈ 0.903 µM) | – | – | – | – | –
2 | COc1cc(/C=C\c2ccc(OC)c(O[Si](C)(C)C(C)(C)C)c2O[Si](C)(C)C(C)(C)C)cc(O[Si](C)(C)C(C)(C)C)c1OC | > 10 | > 10 | > 10 | > 10 | – | >100 | > 10 | > 10 | – | – | –
3 | COc1cc(/C=C\c2ccc(OC)c(OP(=O)([O-])[O-])c2OP(=O)([O-])[O-])cc(OP(=O)([O-])[O-])c1OC.[Zn+2].[Zn+2].[Zn+2] | 3.5 | > 10 | 4.6 | 3.5 | 1.3 | 0.15 | > 10 | 4.5 | > 10 | – | –
4 | COc1cc(/C=C\c2ccc(OC)c(O[Si](C)(C)C(C)(C)C)c2O[Si](C)(C)C(C)(C)C)cc2c1OCO2 | > 10 | > 10 | > 10 | > 10 | – | >10 | > 10 | > 10 | – | – | –
5 | COc1cc(/C=C\c2ccc(OC)c(OP(=O)([O-])[O-])c2OP(=O)([O-])[O-])cc2c1OCO2.[K+].[K+].[K+].[K+] | 1.4 | 5.3 | 0.93 | 0.39 | > 10 | 0.17 | > 10 | 0.65 | 9.6 | – | –
6 | COc1ccc(/C=C\c2cc(OC)c3c(c2)OCO3)cc1O [Combretastatin A-2] | 0.043 (≈ 0.143 µM) | 0.014 (≈ 0.0466 µM) | 0.0054 (≈ 0.018 µM) | 0.0042 (≈ 0.014 µM) | – | 0.016 (≈ 0.0533 µM) | 0.47 (≈ 1.57 µM) | – | – | – | –
7 | COc1ccc(/C=C\c2cc(O)c(OC)c(OC)c2)c(O)c1O [STILSTATIN 2] | 1.5 (≈ 4.71 µM) | 1.8 (≈ 5.65 µM) | 1.8 (≈ 5.65 µM) | 1.6 (≈ 5.03 µM) | – | 1.7 (≈ 5.34 µM) | 1.9 (≈ 5.97 µM) | 1.6 (≈ 5.03 µM) | – | – | –
8 | COc1cc(/C=C\c2ccc(OC)c(OP(=O)([O-])[O-])c2OP(=O)([O-])[O-])cc(OC)c1OC.[Na+].[Na+].[Na+].[Na+] | 3.3 | > 10 | 2.7 | – | – | 0.3 | > 10 | – | – | – | –
9 | COc1cc(/C=C\c2ccc(OC)c(OP(=O)([O-])[O-])c2OP(=O)([O-])[O-])cc2c1OCO2.[Na+].[Na+].[Na+].[Na+] | 2.8 | > 10 | 2.5 | 3.4 | – | 1.4 | > 10 | 2.8 | – | – | –
10 | COc1cc(/C=C\c2ccc(OC)c(OP(=O)([O-])[O-])c2OP(=O)([O-])[O-])cc2c1OCO2.[Li+].[Li+].[Li+].[Li+] | 2.7 | > 10 | 2.1 | 1.2 | – | 0.3 | > 10 | 2.4 | – | – | –
11 | Manganese Stilstatin 2 2',3,3'-O-Triphosphate | 0.51 | > 10 | > 10 | > 10 | 1.7 | – | > 10 | 3.6 | – | > 10 | –
12 | COc1ccc(/C=C\c2cc(OC)c(OC)c(OC)c2)cc1OP(=O)([O-])[O-].[Na+].[Na+] [FOSBRETABULIN DISODIUM] | 0.0004 | 0.23 | 0.0007 | – | – | 0.0029 | – | – | – | – | 20
13 | COc1cc(/C=C\c2ccc(OC)c(OP(=O)([O-])[O-])c2OP(=O)([O-])[O-])cc(OP(=O)([O-])[O-])c1OC.[Rb+].[Rb+].[Rb+].[Rb+].[Rb+].[Rb+] | 3.3 | > 10 | 3.9 | 3.9 | – | 0.26 | > 10 | 4.3 | – | – | –

The remaining compounds from weak to strong by GI50 (NCI-H460), led by results:

Row | GI50 (NCI-H460) [µg/mL] | GI50 (BXPC-3) [µg/mL] | GI50 (DU-145) [µg/mL] | GI50 (MCF7) [µg/mL] | GI50 (SW-1736) [µg/mL] | Compound | ED50 (P388) [µg/mL] | GI50 (KM-20L2) [µg/mL] | GI50 (SF-268) [µg/mL] | GI50 [1] [µg/mL] | GI50 (KAT-4) [µg/mL] | solubility [2] [mg/mL]
14 | 0.41 | 2.1 | 0.053 | 0.045 | – | COc1ccc(/C=C\c2cc(OC)c3c(c2)OCO3)cc1OP(=O)([O-])[O-].[Na+].[Na+] | 0.025 | 3.8 | – | – | – | –
15 | 0.35 | 5.8 | 0.82 | 0.36 | – | COc1cc(/C=C\c2ccc(OC)c(OP(=O)([O-])[O-])c2OP(=O)([O-])[O-])cc(OP(=O)([O-])[O-])c1OC.[Li+].[Li+].[Li+].[Li+].[Li+].[Li+] | 0.028 | 6.1 | 0.76 | – | – | –
16 | 0.35 | 3.6 | 0.37 | 0.38 | – | COc1cc(/C=C\c2ccc(OC)c(OP(=O)([O-])[O-])c2OP(=O)([O-])[O-])cc(OP(=O)([O-])[O-])c1OC.[Ca+2].[Ca+2].[Ca+2] | 0.14 | 5.2 | 0.46 | – | – | –
17 | 0.32 | 5.9 | 0.42 | 0.5 | > 10 | COc1cc(/C=C\c2ccc(OC)c(OP(=O)([O-])[O-])c2OP(=O)([O-])[O-])cc(OP(=O)([O-])[O-])c1OC.[Mg+2].[Mg+2].[Mg+2] | 0.064 | < 10 | 0.63 | 4.7 | – | –
18 | 0.3 | 1.2 | 0.26 | 0.3 | – | COc1cc(/C=C\c2ccc(OC)c(OP(=O)([O-])[O-])c2OP(=O)([O-])[O-])cc(OP(=O)([O-])[O-])c1OC.[Na+].[Na+].[Na+].[Na+].[Na+].[Na+] | 0.14 | 3.1 | 0.34 | – | – | –
19 | 0.3 | 0.75 | 0.22 | 0.15 | – | COc1cc(/C=C\c2ccc(OC)c(OP(=O)([O-])[O-])c2OP(=O)([O-])[O-])cc(OP(=O)([O-])[O-])c1OC.[K+].[K+].[K+].[K+].[K+].[K+] | 0.12 | 2.9 | 0.3 | – | – | –
20 | 0.0006 (≈ 0.0019 µM) | 0.39 (≈ 1.23 µM) | 0.0008 (≈ 0.00253 µM) | – | – | COc1ccc(/C=C\c2cc(OC)c(OC)c(OC)c2)cc1O [COMBRETASTATIN A4] | 0.0009 (≈ 0.00284 µM) | 0.34 (≈ 1.07 µM) | – | – | – | –
